# According to PMC12267056 (Nature, 2025):
# “And” between values parts separate entries of the source, which are not always exact repeats. Equal entries are not always repeated. Where two headings read alike, the source gives them in different places.
# Assays:
# [1] = target: T1, human SLC35B1 (wild type) (Homo sapiens, UniProt P78383); format: binding; set-up: made in house; host or cells: Saccharomyces cerevisiae FGY217; settings: for GFP fluorescence after heating (source data Fig 1B): 1 mM substrate
# T1 sequence (P78383 1-322): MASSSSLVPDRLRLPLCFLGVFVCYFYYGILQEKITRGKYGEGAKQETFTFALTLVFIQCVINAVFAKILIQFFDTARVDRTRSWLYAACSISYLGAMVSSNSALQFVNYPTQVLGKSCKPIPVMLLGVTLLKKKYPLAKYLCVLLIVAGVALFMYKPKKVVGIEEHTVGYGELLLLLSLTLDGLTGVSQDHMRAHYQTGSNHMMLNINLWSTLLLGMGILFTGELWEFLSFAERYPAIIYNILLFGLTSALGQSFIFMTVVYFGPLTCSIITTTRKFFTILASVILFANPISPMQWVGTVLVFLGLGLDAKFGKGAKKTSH
# [2] = target: T1, human SLC35B1 (wild type); assay: [3H]ADP/ATP exchange kinetics (Michaelis–Menten); format: biochemical; set-up: made in house; host or cells: Saccharomyces cerevisiae FGY217
# [3] = target: T1, human SLC35B1 (wild type); assay: Competitive uptake assay: [3H]ADP uptake with 1 mM cold nucleotide; format: biochemical; set-up: made in house; host or cells: Saccharomyces cerevisiae FGY217; settings: competitor 1mM; sheet ED 6F; SLC35B1 proteoliposomes
# [4] = target: T1, human SLC35B1 (wild type); assay: IC50 for competitive inhibition of [3H]ADP uptake in proteoliposomes; format: biochemical; set-up: made in house; host or cells: Saccharomyces cerevisiae FGY217
# [5] = target: T1, human SLC35B1 (wild type); assay: STD NMR of nucleotide interaction with SLC35B1 proteoliposomes; format: binding; set-up: made in house; host or cells: Saccharomyces cerevisiae FGY217
# [6] = target: T2, SLC35B1-Fv-MBP fusion protein (Homo sapiens, UniProt P78383); assay: IC50 for ADP competition of [3H]-ADP/ATP transport, SLC35B1-Fv-MBP; format: biochemical; settings: read-out: IC50, external ADP competition of [3H]-ADP/ATP transport; SLC35B1-Fv-MBP fusion protein in proteoliposomes
# T2 construct: TEV site (C); GFP (C); His8 (C); made in house; host or cells: SLC35B1: Saccharomyces cerevisiae FGY217; Fv–MBP: Brevibacillus choshinensis (secreted)
# T2 sequence (P78383 1-322): T1 sequence (P78383 1-322)
compound,measurement,setting,value
Nc1ncnc2c1ncn2[C@@H]1O[C@H](COP(=O)(O)OP(=O)(O)O)[C@@H](O)[C@H]1O [ADP],ΔTm (average melting temperature increase),"[1]; 1 mM nucleotide, purified wild-type SLC35B1–GFP",5.3 °C
same,"ΔTm, individual titrations (source data)","[1]; 1 mM nucleotide, wild-type SLC35B1–GFP",5.49 and 5.09 and 5.45
same,GFP fluorescence after heating (source data Fig 1B),[1]; temperature 4,98.7528 and 95.6204 and 104.931 and 101.189 and 101.102 and 98.4048
same,GFP fluorescence after heating (source data Fig 1B),[1]; temperature 10,87.2672 and 91.8788 and 95.3593 and 107.889 and 92.923 and 94.9243
same,GFP fluorescence after heating (source data Fig 1B),[1]; temperature 20,90.7477 and 91.6178 and 91.1827 and 94.7503 and 88.9204 and 86.6668
same,GFP fluorescence after heating (source data Fig 1B),[1]; temperature 30,85.9881 and 86.4928 and 88.9204 and 91.0957 and 89.5295 and 91.7048
same,GFP fluorescence after heating (source data Fig 1B),[1]; temperature 40,42.8735 and 42.656 and 39.9412 and 40.3066 and 43.7088 and 44.6834
same,GFP fluorescence after heating (source data Fig 1B),[1]; temperature 50,5.748 and 5.6183 and 5.416 and 5.384 and 5.915 and 6.0377
same,GFP fluorescence after heating (source data Fig 1B),[1]; temperature 60,2.3127 and 2.334 and 2.351 and 2.357 and 2.381 and 2.422
same,GFP fluorescence after heating (source data Fig 1B),[1]; temperature 70,0.4378 and 0.4464 and 0.4526 and 0.4781 and 0.469 and 0.4867
same,ADP/ATP exchange initial rate,[2]; [ADP] 0.2,18.1311 nmols / min* mg and 18.3179 nmols / min* mg and 18.8253 nmols / min* mg
same,ADP/ATP exchange initial rate,[2]; [ADP] 0.5,28.9111 nmols / min* mg and 29.9816 nmols / min* mg and 28.6714 nmols / min* mg
same,ADP/ATP exchange initial rate,[2]; [ADP] 1,44.617 nmols / min* mg and 42.2865 nmols / min* mg and 44.5891 nmols / min* mg
same,ADP/ATP exchange initial rate,[2]; [ADP] 5,114.496 nmols / min* mg and 126.14 nmols / min* mg and 112.107 nmols / min* mg
same,ADP/ATP exchange initial rate,[2]; [ADP] 10,156.88 nmols / min* mg and 168.644 nmols / min* mg and 150.078 nmols / min* mg
same,ADP/ATP exchange initial rate,[2]; [ADP] 20,155.074 nmols / min* mg and 183.464 nmols / min* mg and 182.884 nmols / min* mg
same,[3H]ADP uptake in the presence of cold competitor nucleotide (individual replicates; no-competitor control about 100),[3],-1.767 and -1.033 and 2.879 and 5.424 and 4.368 and 4.176
same,Normalized [3H]-ADP uptake activity (IC50 curve),[4]; external cold nucleotide 0.01 uM,93.6927 and 106.307 and 98.0637
same,Normalized [3H]-ADP uptake activity (IC50 curve),[4]; external cold nucleotide 0.1 uM,87.3862 and 98.7018 and 89.3272
same,Normalized [3H]-ADP uptake activity (IC50 curve),[4]; external cold nucleotide 1 uM,48.8239 and 76.0895 and 44.7547
same,Normalized [3H]-ADP uptake activity (IC50 curve),[4]; external cold nucleotide 10 uM,22.7468 and 19.9682 and 21.5397
same,Normalized [3H]-ADP uptake activity (IC50 curve),[4]; external cold nucleotide 100 uM,8.173 and 6.95 and 8.424
same,IC50,[4]; wild-type SLC35B1 proteoliposomes,1.6 µM
same,1H integral (off-resonance spectrum),[5],1.99E+11
same,STD integral,[5],3.67E+10
same,IC50,[6],2.77 ± 0.41 µM
